Data from ChEMBL document CHEMBL1926647, “Discovery of 4-aminomethylphenylacetic acids as γ-secretase modulators via a scaffold design approach” (Bioorg Med Chem Lett, 2011).
pEC50, pIC50: −log10 of the molar value. Each block holds one compound with its values, some of them ahead of it. Activity calls are given as the source filed them. No cut-off for these calls is given here.

Legend:
[1] = Modulation of gamma-secretase expressed in CHO cells co-expressing APP V717F mutant assessed as reduction in amyloid beta42 production after 17 hrs by ELISA; type: cell-based
Mus musculus [2] = assay: Inhibition of gamma-secretase-mediated cleavage of APP in wild type CF1 mouse brain assessed as inhibition of amyloid beta42 production at 50 mg/kg, po after 4 hrs by ELISA; type: functional
[3] = Drug uptake in wild type CF1 mouse brain at 50 mg/kg, po after 4 hrs; type: ADME, organism-based; parameters: dose 50 mg/kg, route oral; conditions: read-out: Drug uptake
[4] = Modulation of gamma-secretase expressed in CHO cells co-expressing polyhistidine-tagged APP695NL I-his with FAD-linked Swedish and London mutation assessed as reduction in amyloid beta42 production after 2 hrs by ELISA; type: cell-based
[5] = Drug uptake in wild type CF1 mouse plasma at 50 mg/kg, po after 4 hrs; type: ADME, organism-based; parameters: dose 50 mg/kg, route oral
[6] = Oral bioavailability in wild type CF1 mouse; type: ADME, organism-based; conditions: in vivo
[7] = Clearance in wild type CF1 mouse; type: ADME, organism-based; conditions: in vivo
[8] = Half life in wild type CF1 mouse; type: ADME, organism-based; conditions: in vivo
Mus musculus [9] = assay: Inhibition of gamma-secretase-mediated cleavage of APP in wild type CF1 mouse brain assessed as inhibition of amyloid beta42 production at 30 mg/kg, po after 4 hrs by ELISA; type: functional; conditions: for inhibition in vivo at 30 mg/kg: Mus musculus, CF1, Brain, po, 4 h
[10] = Drug uptake in wild type CF1 mouse brain at 30 mg/kg, po after 4 hrs; type: ADME, organism-based; parameters: dose 30 mg/kg, route oral; conditions: read-out: Drug uptake
[11] = Drug uptake in wild type CF1 mouse plasma at 30 mg/kg, po after 4 hrs; type: ADME, organism-based; parameters: dose 30 mg/kg, route oral
[12] = Ratio of drug level in brain to plasma in wild type CF1 mouse at 30 mg/kg, po after 4 hrs; type: ADME, organism-based; parameters: dose 30 mg/kg, route oral; conditions: read-out: BPR
Mus musculus [13] = assay: Inhibition of gamma-secretase-mediated cleavage of APP in wild type CF1 mouse brain assessed as inhibition of amyloid beta42 production at 12.5 mg/kg, po after 4 hrs by ELISA; type: functional; conditions: Mus musculus, CF1, Brain, po, 4 h
[14] = Drug uptake in wild type CF1 mouse brain at 12.5 mg/kg, po after 4 hrs; type: ADME, organism-based; parameters: dose 12.5 mg/kg, route oral; conditions: read-out: Drug uptake
Rattus norvegicus [15] = species: Rattus norvegicus; assay: Liver blood flow in rat; type: ADME, organism-based
Homo sapiens = species: Homo sapiens; assay: Liver blood flow in human; type: ADME, organism-based
[16] = Apparent permeability from apical to basolateral side in human Caco2 cells; type: ADME, cell-based; conditions: caco-2
Caco-2 = assay: Ratio of permeability from basolateral to apical side to apical to basolateral side in human Caco2 cells; type: ADME, cell-based
Rattus norvegicus [17] = assay: Dose normalised AUC in F344 rat at 2 mg/kg; type: ADME, organism-based; parameters: dose 2 mg/kg; conditions: in vivo
[18] = Clearance in F344 rat at 2 mg/kg; type: ADME, organism-based; parameters: dose 2 mg/kg; conditions: in vivo
[19] = Half life in F344 rat at 2 mg/kg; type: ADME, organism-based; parameters: dose 2 mg/kg; conditions: in vivo
Canis familiaris = assay: Dose normalised AUC in dog at 0.5 mg/kg; type: ADME, organism-based, Canis lupus familiaris; parameters: dose 0.5 mg/kg; conditions: in vivo
[20] = Cmax in dog at 0.5 mg/kg; type: ADME, organism-based, Canis lupus familiaris; parameters: dose 0.5 mg/kg; conditions: in vivo
[21] = Clearance in dog at 0.5 mg/kg; type: ADME, organism-based, Canis lupus familiaris; parameters: dose 0.5 mg/kg; conditions: in vivo
[22] = Half life in dog at 0.5 mg/kg; type: ADME, organism-based, Canis lupus familiaris; parameters: dose 0.5 mg/kg; conditions: in vivo
[23] = biological target: Voltage-gated inwardly rectifying potassium channel KCNH2 (Homo sapiens, UniProt Q12809); assay: Inhibition of human ERG at 10 uM
Chain of Voltage-gated inwardly rectifying potassium channel KCNH2 (Q12809 whole entry): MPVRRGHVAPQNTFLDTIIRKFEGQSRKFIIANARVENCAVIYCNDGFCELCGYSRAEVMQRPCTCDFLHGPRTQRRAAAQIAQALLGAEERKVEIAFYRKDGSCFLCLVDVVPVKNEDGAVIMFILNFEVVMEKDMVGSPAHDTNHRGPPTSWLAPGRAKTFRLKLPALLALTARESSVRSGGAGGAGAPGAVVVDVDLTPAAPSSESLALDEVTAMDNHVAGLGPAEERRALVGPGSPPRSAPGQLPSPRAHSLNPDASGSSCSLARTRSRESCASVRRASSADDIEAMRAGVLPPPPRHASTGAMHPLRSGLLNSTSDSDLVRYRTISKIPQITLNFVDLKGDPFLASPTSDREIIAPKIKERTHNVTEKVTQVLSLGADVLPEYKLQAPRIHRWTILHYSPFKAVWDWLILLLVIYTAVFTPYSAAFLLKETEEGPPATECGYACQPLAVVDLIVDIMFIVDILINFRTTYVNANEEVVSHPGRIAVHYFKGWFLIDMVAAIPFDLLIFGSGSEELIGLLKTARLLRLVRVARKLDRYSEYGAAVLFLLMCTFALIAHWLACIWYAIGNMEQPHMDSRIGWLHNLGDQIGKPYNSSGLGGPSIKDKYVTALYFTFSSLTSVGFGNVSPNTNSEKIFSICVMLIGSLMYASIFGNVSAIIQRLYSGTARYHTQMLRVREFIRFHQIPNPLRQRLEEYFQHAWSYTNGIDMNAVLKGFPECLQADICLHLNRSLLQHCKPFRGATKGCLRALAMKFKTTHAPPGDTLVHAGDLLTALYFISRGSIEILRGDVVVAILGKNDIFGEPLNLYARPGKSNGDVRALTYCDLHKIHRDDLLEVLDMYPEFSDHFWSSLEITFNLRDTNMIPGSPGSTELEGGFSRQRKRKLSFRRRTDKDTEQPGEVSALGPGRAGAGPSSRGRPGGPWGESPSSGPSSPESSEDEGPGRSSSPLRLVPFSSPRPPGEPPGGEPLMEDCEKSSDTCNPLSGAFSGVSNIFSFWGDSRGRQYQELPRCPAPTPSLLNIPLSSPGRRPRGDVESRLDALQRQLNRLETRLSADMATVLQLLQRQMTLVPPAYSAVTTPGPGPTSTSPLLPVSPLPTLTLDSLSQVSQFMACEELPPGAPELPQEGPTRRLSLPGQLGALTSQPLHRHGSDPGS

Cytochrome P450 3A4 = Cytochrome P450 3A4 (Homo sapiens, UniProt P08684); assay: Inhibition of human CYP3A4; type: ADME
Chain of Cytochrome P450 3A4 (P08684 whole entry): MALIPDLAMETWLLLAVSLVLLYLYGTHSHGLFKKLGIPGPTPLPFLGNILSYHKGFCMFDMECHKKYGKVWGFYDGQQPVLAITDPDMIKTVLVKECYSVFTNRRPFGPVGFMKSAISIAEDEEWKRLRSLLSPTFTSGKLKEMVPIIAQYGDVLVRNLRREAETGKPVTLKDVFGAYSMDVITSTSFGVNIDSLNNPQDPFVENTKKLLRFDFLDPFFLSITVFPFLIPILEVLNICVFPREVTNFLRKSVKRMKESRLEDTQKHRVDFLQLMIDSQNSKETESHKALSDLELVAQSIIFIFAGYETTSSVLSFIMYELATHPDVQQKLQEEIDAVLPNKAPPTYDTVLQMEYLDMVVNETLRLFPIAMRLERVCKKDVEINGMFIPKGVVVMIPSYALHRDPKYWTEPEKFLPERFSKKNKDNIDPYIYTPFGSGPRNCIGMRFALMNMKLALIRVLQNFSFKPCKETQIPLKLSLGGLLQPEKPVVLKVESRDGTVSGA

Cytochrome P450 2C9 = Cytochrome P450 2C9 (Homo sapiens, UniProt P11712); assay: Inhibition of human CYP2C9; type: ADME
Chain of Cytochrome P450 2C9 (P11712 whole entry): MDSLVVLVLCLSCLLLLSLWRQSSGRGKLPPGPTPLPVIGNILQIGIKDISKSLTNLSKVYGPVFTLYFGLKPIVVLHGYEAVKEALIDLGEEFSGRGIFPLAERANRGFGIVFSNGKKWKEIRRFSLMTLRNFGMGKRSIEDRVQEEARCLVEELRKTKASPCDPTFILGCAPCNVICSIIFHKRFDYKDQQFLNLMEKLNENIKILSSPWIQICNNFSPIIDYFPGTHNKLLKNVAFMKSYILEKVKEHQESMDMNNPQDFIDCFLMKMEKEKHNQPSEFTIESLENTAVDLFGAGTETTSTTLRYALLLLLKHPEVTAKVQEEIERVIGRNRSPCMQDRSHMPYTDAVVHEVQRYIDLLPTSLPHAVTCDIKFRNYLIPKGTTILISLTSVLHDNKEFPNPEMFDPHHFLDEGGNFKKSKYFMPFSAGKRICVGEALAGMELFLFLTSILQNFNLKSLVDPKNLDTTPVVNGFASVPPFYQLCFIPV

Cytochrome P450 2C19 = Cytochrome P450 2C19 (Homo sapiens, UniProt P33261); assay: Inhibition of human CYP2C19; type: ADME
Chain of Cytochrome P450 2C19 (P33261 whole entry): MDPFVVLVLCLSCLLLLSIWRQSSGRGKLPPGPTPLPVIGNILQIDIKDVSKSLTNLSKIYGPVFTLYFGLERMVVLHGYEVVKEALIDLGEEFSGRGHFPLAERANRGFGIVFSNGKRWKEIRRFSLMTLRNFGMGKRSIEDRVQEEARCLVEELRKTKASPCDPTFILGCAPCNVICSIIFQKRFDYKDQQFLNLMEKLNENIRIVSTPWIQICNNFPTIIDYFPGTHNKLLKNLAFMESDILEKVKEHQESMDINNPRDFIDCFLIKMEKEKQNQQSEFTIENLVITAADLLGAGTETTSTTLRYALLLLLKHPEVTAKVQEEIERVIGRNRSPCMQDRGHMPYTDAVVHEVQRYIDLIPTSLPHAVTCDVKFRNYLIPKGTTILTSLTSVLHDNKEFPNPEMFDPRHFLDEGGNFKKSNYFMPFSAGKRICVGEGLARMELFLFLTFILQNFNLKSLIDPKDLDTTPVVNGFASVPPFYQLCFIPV

Cytochrome P450 2D6 = Cytochrome P450 2D6 (Homo sapiens, UniProt P10635); assay: Inhibition of human CYP2D6; type: ADME
Chain of Cytochrome P450 2D6 (P10635 whole entry): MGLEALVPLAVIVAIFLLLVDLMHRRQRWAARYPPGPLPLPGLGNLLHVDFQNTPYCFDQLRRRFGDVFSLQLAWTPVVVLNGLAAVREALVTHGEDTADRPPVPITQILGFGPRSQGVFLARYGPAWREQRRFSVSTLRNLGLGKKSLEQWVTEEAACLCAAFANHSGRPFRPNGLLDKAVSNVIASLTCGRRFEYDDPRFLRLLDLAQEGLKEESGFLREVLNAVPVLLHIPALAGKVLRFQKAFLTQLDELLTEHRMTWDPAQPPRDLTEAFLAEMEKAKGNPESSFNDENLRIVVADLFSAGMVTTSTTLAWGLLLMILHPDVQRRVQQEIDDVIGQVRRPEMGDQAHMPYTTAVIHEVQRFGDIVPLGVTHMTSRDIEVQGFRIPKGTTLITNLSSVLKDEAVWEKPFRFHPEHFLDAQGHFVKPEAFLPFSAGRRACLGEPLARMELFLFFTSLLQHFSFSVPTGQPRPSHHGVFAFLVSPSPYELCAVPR

Cytochrome P450 1A2 = biological target: T1, Cytochrome P450 1A2 (Homo sapiens, UniProt P05177); assay: Inhibition of human CYP1A2; type: ADME
T1 sequence (P05177 whole entry): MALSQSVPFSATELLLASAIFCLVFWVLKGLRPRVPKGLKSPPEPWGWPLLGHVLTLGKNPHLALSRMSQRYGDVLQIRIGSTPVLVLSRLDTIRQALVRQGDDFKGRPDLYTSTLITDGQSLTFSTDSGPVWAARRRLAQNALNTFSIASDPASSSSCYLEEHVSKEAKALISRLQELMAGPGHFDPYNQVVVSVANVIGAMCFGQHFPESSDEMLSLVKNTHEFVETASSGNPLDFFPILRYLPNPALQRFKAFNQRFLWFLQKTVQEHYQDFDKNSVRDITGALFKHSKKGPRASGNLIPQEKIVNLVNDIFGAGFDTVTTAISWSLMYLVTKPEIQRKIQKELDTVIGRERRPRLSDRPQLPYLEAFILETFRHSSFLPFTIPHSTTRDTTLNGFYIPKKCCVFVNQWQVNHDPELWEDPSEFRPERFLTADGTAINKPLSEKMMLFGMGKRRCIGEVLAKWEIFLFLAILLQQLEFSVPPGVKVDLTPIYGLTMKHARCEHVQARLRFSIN

[24] = Modulation of gamma-secretase-mediated cleavage of APP assessed as reduction in amyloid beta42 production

- pEC50 [1]: < 5.00
SMILES: O=C(O)Cc1ccc(CN2CCC(C(F)(F)F)CC2)c(-c2ccc(C(F)(F)F)cc2)c1

- pEC50 [1]: 6.21
- concentration at 4 h [3]: 17 µM
- concentration at 4 h [5]: 32 µM
- bioavailability [6]: 100%
- clearance [7]: 3.2 mL/min/kg
- half-life [8]: 2.9 h
SMILES: CC(C)CCC(c1ccc(CC(=O)O)cc1-c1ccc(C(F)(F)F)cc1)N1CCC(C(F)(F)F)CC1 (configuration not stated)
- inhibition in vivo at 50 mg/kg (Mus musculus [2]): 35%

- pEC50 [1]: 6.20
- concentration at 4 h [10]: 32 µM
- concentration at 4 h [11]: 37 µM
- Kp at 4 h [12]: 1
- concentration at 4 h [14]: 9 µM
- QH (Rattus norvegicus [15]): 31%
- QH (Homo sapiens): 39%
- Papp A→B [16]: 16 ×10⁻⁶ cm/s
- Ratio (Caco-2): 1.9
- AUC/dose (Rattus norvegicus [17]): 5495 ng·kg·h/mL/mg
- clearance [18]: 2.5 mL/min/kg
- half-life [19]: 9.6 h
- AUC/dose (Canis familiaris): 28712 ng·kg·h/mL/mg
- Cmax [20]: 1120 ng/mL
- clearance [21]: 0.6 mL/min/kg
- half-life [22]: 10.1 h
- pIC50 (Cytochrome P450 3A4): < 5.00
- pIC50 (Cytochrome P450 2C9): < 5.00
- pIC50 (Cytochrome P450 2C19): < 5.00
- pIC50 (Cytochrome P450 2D6): < 5.00
- pIC50 (Cytochrome P450 1A2): < 5.00
SMILES: CC(C)(C)CC(c1ccc(CC(=O)O)cc1-c1ccc(C(F)(F)F)cc1)N1CCC(C(F)(F)F)CC1 (racemic)
- inhibition (INH) (Mus musculus [9]; 30 mg/kg): 50%
- inhibition in vivo at 12.5 mg/kg (Mus musculus [13]): 25%
- inhibition (INH) [23]: Not Active

- pEC50 [1]: 6.34
- concentration at 4 h [10]: 13 µM
- concentration at 4 h [11]: 21 µM
SMILES: CC(C)CCC(c1ccc(C(C)(C)C(=O)O)cc1-c1ccc(C(F)(F)F)cc1)N1CCC(C(F)(F)F)CC1 (configuration not stated)
- inhibition in vivo at 30 mg/kg (Mus musculus [9]): 20%

- pEC50 [1]: 6.47
- concentration at 4 h [10]: 13 µM
- concentration at 4 h [11]: 22 µM
SMILES: CC(C)CCC(c1ccc(C(C)C(=O)O)cc1-c1ccc(C(F)(F)F)cc1)N1CCC(C(F)(F)F)CC1 (configuration not stated)
- inhibition in vivo at 30 mg/kg (Mus musculus [9]): 35%

- pEC50 [1]: 5.96
SMILES: CC(C)CCC(c1ccc(CC(=O)O)cc1-c1ccc(C(F)(F)F)cc1)N1CCC(C(C)(C)C)CC1 (configuration not stated)

The remaining lines, values behind:

SMILES: CC(C)CCN(Cc1ccc(C(CC(C)C)C(=O)O)cc1-c1ccc(C(F)(F)F)cc1)[C@H]1CC[C@H](C(C)(C)C)CC1 (mixture of isomers)
- pEC50 [1]: 6.92
- inhibition (Mus musculus [2]): inactive
- concentration at 4 h [3]: 0.7 µM

SMILES: CC(C)CCC(NC1CCC(C(C)(C)C)CC1)c1ccc(CC(=O)O)cc1-c1ccc(C(F)(F)F)cc1 (configuration not stated)
- pEC50 [1]: 6.35

SMILES: C[C@@H](C(=O)O)c1ccc(-c2ccccc2)c(F)c1 [TARENFLURBIL]
- pEC50 [4]: 3.52

SMILES: CC(C)CCC(c1ccc(CC(=O)O)cc1-c1ccc(C(F)(F)F)cc1)N1CC[C@H](F)C1 (some centres not stated)
- pEC50 [1]: 5.23

SMILES: CC(C)CCC(c1ccc(CC(=O)O)cc1-c1ccc(C(F)(F)F)cc1)N1CCC(F)(F)C1 (configuration not stated)
- pEC50 [1]: 5.48

SMILES: CC(C)CCN(Cc1ccc(C(=O)O)cc1-c1ccc(C(F)(F)F)cc1)c1ccc(C(F)(F)F)cc1
- pEC50 [1]: 5.27

SMILES: CC(C)CCN(Cc1ccc(CC(=O)O)cc1-c1ccc(C(F)(F)F)nc1)[C@H]1CC[C@H](C(C)(C)C)CC1
- pEC50 [1]: 5.30

SMILES: CC(C)CCC(c1ccc(CC(=O)O)cc1-c1ccc(C(F)(F)F)cc1)N1CCC(C)CC1 (configuration not stated)
- pEC50 [1]: 5.00

SMILES: O=C(O)C1(c2ccc(-c3ccc(Cl)c(Cl)c3)c(F)c2)CC1
- pEC50 [24]: 4.40
